# Assay results: ChEMBL document CHEMBL1201862, “PubChem BioAssay data set” (2004)
# Calls of active or inactive are those of the source.
# Experiments:
# Kallikrein-7 = Kallikrein-7 (Homo sapiens, UniProt P49862); assay: Fluorescence Intensity-based biochemical primary high throughput dose response assay to identify activators of kallikrein-7 (K7) zymogen.
# [1] = biological target: Sphingosine 1-phosphate receptor 2 (Homo sapiens, UniProt O95136); assay: Dose Response Cell Based Assay for Agonists of the S1P2 Receptor of Purchased Analogues. [Related pubchem assays: 729, 843, 854, 736 ]; format: functional
# [2] = A Cell Based Secondary Assay To Explore Cytotoxicity of Compounds that Sensitize Mycobacterium Tuberculosis to Beta-Lactam Antibiotics.; format: functional
# [3] = cytotoxicity in HEK-293T cells, dose response, cytotoxicity control for TCR NF-kB inhibitor project, luminescence, T-cell screen hits (AID 489026); format: functional, cell-based;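 note: cells exposed to compound about 14 hours before the viability readout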
# Galanin receptor type 3 = biological target: T1, Galanin receptor type 3 (Homo sapiens, UniProt O60755); assay: Fluorescence-based cell-based primary high throughput dose response assay to identify antagonists of the Galanin Receptor 3 (GalR3).; format: functional
# T1 sequence (O60755 whole entry): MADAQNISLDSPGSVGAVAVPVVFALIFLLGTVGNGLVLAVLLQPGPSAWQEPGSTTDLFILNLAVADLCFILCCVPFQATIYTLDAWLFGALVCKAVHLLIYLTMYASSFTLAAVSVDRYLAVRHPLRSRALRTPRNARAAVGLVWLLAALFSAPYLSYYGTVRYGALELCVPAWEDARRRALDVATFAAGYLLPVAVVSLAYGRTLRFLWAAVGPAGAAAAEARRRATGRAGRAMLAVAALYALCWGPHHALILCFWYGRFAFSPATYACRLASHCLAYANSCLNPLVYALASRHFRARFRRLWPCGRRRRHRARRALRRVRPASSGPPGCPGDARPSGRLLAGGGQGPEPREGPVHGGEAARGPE
# cells [4] = format: functional, cell-based; conditions: HEK-CNG
# [5] = biological target: T2, COUP transcription factor 2 (Homo sapiens, UniProt P24468); assay: Luminescence-based cell-based high throughput dose response assay to identify inhibitors of COUP-TFII (NR2F2).; format: functional;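 note: HEK293 cells transiently cotransfected with COUP-TFII expression vector and reporter; luciferase reporter luminescence driven by COUP-TFII from the pX2-168 reporter plasmid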
# T2 sequence (P24468 whole entry): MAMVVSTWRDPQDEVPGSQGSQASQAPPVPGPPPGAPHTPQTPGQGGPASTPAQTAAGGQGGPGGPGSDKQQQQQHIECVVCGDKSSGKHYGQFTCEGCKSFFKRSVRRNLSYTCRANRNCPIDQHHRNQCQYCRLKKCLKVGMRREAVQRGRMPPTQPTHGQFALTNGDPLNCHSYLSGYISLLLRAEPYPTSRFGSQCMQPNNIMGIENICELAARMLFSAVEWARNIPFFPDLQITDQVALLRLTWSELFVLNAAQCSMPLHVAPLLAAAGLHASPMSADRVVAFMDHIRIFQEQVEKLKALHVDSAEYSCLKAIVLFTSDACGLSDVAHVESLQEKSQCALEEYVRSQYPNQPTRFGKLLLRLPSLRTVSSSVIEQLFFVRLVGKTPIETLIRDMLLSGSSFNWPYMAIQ
# [6] = HEp-2 cell cytotoxicity, dose response, cytotoxicity control for RSV inhibitor project, HTS (AID 2410); format: functional; conditions: human respiratory syncytial virus
# cells [7] = assay: cells
# Paired box protein Pax-8 = Paired box protein Pax-8 (Homo sapiens, UniProt Q06710); assay: inhibitors of PAX8-driven TPO luciferase reporter, dose response, RMG-I cells, cherry-pick (AID 687027); format: functional, cell-based;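 note: luciferase reporter driven by Pax8 target thyroperoxidase promoter measured by SteadyGlo luminescence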
# [8] = NIH:OVCAR-3 ovarian cancer cell cytotoxicity, dose response, PAX8 inhibitor project, plate reader, dry powder samples (AID 743044); format: functional, cell-based
# [9] = IGROV1 ovarian cancer cell cytotoxicity, dose response, PAX8 inhibitor project, plate reader, dry powder samples (AID 743043); format: functional, cell-based; conditions: IGROV-1
# [10] = cytotoxicity in OVCAR8 ovarian cancer cells, dose response, PAX8 project, cell-based, plate reader, dry powder samples (AID 743197); format: functional; conditions: OVCAR-8
# [11] = Luminescence Cell-Based Dose Confirmation HTS to Identify Activators of 5'UTR Stem-Loop Driven Alpha-Synuclein mRNA Translation in H4 Neuroglioblastoma Cells. [Related pubchem assays: 1829 (Project Summary), 1814 (Primary HTS)]; format: functional
# [12] = Luminescence Cell-Based Dose Response HTS to Identify Activators of Luciferase Translation or Activity in H4 […] Cells. [Related pubchem assays: 1829 (Project Summary), 1814 (Primary HTS)]; format: functional
# H4 = assay: Luminescence Cell-Based Dose Response HTS to Identify Activators of 5'UTR Stem-Loop Driven Prion Protein mRNA Translation in H4 Neuroglioblastoma Cells. [Related pubchem assays: 1829 (Project Summary), 1814 (Primary HTS)]; format: functional; conditions: Homo sapiens
# [13] = M. tuberculosis H37Rv growth inhibitors, H37Rv strain (AID 1626); format: functional
# [14] = biological target: T3, Carboxy-terminal domain RNA polymerase II polypeptide A small phosphatase 1 (Homo sapiens, UniProt Q9GZU7); assay: inhibitors of CTDSP1, concentration-response testing, biochemical assay, absorbance-based, actives from ultra-high-throughput screening (AID 540297); format: functional
# T3 sequence (Q9GZU7 whole entry): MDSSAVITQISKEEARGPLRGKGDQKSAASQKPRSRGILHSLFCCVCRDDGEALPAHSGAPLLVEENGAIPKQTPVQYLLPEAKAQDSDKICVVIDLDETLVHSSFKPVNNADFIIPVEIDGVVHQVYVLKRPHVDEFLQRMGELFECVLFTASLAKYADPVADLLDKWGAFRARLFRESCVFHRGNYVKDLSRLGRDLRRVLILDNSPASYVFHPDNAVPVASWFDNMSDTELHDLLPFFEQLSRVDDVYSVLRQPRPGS
# Estrogen receptor beta = Estrogen receptor beta (Homo sapiens, UniProt Q92731);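 note: recombinant ER-beta bound to coactivator SRC1 peptide in presence of estradiol agonist; inhibitors block coactivator peptide binding and lower the FRET signal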
# [15] = biological target: T4, Mannose-6-phosphate isomerase (Homo sapiens, UniProt P34949); assay: inhibitors of human PMI, primary screen, biochemical, fluorescence intensity, coupled assay (AID 1209)
# T4 sequence (P34949 whole entry): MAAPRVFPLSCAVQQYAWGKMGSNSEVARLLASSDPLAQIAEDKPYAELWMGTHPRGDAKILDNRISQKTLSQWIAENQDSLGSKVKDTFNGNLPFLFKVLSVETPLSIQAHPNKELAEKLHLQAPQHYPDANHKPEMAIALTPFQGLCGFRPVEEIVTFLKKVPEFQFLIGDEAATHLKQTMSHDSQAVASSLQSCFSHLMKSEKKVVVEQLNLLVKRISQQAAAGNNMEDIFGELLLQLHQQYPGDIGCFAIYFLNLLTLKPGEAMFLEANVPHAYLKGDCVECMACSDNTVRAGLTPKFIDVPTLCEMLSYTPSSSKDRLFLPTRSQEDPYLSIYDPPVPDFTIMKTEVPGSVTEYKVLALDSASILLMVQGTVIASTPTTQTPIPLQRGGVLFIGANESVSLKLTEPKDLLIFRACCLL
# [16] = biological target: T4, Mannose-6-phosphate isomerase; assay: human PMI inhibitors, high substrate, primary screen, biochemical, fluorescence intensity, high mannose 6-phosphate (AID 1220)
# [17] = Shn3 3'UTR reporter inhibitors, dose response, cell-based, Clone20 osteoblasts, firefly luciferase, cherry-picked (AID 624132); format: functional;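 note: firefly luciferase luminescence from reporter carrying the Shn3 3'UTR in osteoblasts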
# [18] = HepG2 cell cytotoxicity, dose response, cytotoxicity control for Shn3 inhibitor project, CellTiter-Glo, cherry-picked (AID 624134); format: functional, cell-based
# [19] = control 3'UTR Renilla luciferase suppression, dose response, counter-screen for Shn3 inhibitor project, cell-based, Clone20-Shn3RL, cherry-picked (AID 624133); format: functional
# Protein skinhead-1 = biological target: T5, Protein skinhead-1 (Caenorhabditis elegans, UniProt P34707); format: functional
# T5 sequence (P34707 whole entry): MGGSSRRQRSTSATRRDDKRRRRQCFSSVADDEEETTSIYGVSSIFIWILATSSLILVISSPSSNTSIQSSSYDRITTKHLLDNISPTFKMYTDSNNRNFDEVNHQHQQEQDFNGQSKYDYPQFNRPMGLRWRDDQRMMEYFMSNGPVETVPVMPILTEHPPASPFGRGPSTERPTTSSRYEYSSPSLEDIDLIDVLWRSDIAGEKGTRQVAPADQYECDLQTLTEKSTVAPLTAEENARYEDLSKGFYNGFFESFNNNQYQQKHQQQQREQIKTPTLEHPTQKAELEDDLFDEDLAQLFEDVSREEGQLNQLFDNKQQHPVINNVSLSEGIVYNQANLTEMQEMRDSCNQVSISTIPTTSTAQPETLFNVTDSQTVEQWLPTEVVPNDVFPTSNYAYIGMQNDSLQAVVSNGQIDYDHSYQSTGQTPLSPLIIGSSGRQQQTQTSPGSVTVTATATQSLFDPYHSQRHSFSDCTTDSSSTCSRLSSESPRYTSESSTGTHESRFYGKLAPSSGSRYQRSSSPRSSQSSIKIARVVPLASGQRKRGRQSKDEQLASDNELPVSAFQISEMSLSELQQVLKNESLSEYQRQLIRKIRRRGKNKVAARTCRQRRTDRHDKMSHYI
# Vero = assay: host cell cytotoxicity of antiviral hits, dose response, cytotoxicity control for West Nile virus antiviral project, secondary assay (AID 1650); format: functional; conditions: Chlorocebus sabaeus
# Caspase-6 = biological target: T6, Caspase-6 (Homo sapiens, UniProt P55212); assay: human caspase-6 inhibitors, dose response, biochemical, VEID-R110 fluorescence, cherry-pick (AID 720632)
# T6 sequence (P55212 whole entry): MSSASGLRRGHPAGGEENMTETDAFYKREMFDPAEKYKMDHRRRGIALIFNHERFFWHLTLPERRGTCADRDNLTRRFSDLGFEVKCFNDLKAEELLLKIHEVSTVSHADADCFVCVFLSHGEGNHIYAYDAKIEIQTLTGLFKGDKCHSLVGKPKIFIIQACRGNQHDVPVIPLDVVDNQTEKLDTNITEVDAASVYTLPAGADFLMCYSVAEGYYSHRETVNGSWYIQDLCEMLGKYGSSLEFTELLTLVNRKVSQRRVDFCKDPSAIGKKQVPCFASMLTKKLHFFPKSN
# Chain of Kallikrein-7 (P49862 whole entry): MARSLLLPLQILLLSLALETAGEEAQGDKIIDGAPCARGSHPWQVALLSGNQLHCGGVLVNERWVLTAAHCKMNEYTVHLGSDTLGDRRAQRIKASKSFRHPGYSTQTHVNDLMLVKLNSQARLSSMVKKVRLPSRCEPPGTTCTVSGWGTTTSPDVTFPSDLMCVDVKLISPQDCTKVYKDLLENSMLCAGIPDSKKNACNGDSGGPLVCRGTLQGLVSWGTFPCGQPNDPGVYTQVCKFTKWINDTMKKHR
# Chain of Sphingosine 1-phosphate receptor 2 (O95136 whole entry): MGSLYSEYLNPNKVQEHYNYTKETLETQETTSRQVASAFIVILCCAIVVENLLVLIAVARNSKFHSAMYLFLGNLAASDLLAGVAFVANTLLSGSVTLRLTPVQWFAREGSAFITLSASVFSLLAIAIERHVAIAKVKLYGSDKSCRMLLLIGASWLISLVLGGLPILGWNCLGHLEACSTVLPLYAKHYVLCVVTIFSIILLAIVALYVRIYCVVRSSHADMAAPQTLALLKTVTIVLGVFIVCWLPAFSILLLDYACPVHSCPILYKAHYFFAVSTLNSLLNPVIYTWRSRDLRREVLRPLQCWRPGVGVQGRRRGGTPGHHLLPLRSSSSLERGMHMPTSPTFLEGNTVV
# Chain of Estrogen receptor beta (Q92731 whole entry): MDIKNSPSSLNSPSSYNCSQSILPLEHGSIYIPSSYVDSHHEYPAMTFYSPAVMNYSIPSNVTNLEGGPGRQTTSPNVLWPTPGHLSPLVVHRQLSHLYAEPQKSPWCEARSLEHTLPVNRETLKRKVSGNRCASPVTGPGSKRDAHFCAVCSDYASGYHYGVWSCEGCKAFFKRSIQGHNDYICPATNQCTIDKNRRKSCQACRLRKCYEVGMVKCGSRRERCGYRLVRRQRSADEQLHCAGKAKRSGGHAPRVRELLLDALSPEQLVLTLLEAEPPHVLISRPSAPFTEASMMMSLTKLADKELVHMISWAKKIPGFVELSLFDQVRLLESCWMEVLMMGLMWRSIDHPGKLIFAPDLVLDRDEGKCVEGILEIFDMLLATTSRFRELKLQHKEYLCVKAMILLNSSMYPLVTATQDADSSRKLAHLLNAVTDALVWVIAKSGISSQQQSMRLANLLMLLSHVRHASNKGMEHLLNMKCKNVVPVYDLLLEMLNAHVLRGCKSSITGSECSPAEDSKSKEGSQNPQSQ
# Chain of Paired box protein Pax-8 (Q06710 whole entry): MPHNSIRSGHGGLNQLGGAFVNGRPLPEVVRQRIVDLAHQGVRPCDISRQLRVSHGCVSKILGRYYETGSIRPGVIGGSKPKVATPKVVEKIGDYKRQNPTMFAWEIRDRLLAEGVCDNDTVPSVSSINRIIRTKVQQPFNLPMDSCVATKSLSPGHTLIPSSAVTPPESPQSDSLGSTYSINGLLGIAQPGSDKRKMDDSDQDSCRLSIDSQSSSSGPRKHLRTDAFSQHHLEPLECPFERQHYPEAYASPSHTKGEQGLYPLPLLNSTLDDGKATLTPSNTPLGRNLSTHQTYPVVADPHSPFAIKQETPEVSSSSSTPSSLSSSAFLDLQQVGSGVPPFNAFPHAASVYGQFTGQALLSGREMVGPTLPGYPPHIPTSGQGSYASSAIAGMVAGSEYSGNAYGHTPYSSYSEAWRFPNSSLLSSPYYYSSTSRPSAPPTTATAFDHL
structure (smiles),measurement,setting,value
COc1ccc(-c2ccc3c(n2)CCCN3Cc2ccccc2C(F)(F)F)cc1,EC50,Kallikrein-7,17.2 µM (inactive)
CC(=O)c1ccc(OCC(=O)c2cc(C)n(Cc3ccccc3)c2C)cc1,EC50,[1],> 30 µM (not active)
c1ccc(-c2cc(N3CCOCC3)nc3ccccc23)cc1,CC50,[2],> 40 µM (active)
COc1ccc(OC)c(CCNC(=O)Cn2nc(C)c3c(C)n(-c4ccc(C)cc4)nc3c2=O)c1,IC50,[3],> 80 µM (inactive)
same,IC50,Galanin receptor type 3,2.76 µM (active)
same,EC50,cells [4],> 29.9 µM (inactive)
same,IC50,[5],2.61 µM (active)
CCN(c1ccccc1)S(=O)(=O)c1ccc(Cl)c(NC(=O)CSc2nc[nH]n2)c1,CC50,[6],46.3 µM (active)
same,IC50,cells [7],16.9 µM (active)
COc1cc(C)c2occ(/C(C)=N\O)c2c1,IC50,cells [7],18.4 µM (active)
C[C@@H]1CN([C@@H](C)CO)C(=O)Cc2cc(NC(=O)Nc3ccc(C(F)(F)F)cc3)ccc2O[C@H]1CN(C)Cc1ccc2c(c1)OCO2,AC50,Paired box protein Pax-8,7.85 µM (active)
same,AC50,[8],24 µM (active)
same,AC50,[9],63.7 µM (active)
same,AC50,[10],41.5 µM (active)
CC[C@@H]1C(c2ccc(F)cc2)=NN(c2ccccc2)[C@H]1C(=O)N1CCOC1=O,EC50,Kallikrein-7,7.45 µM (active)
Cc1nc(N=C(N)NC(=O)c2ccccc2)nc2ccccc12,EC50,[11],8.34 µM (active)
same,EC50,[12],28.4 µM (active)
same,CC50,[2],> 40 µM (active)
same,EC50,H4,63.4 µM (active)
Cc1cc(C(=O)COc2ccc(C(N)=O)cc2)c(C)n1Cc1ccccc1,EC50,[1],> 30 µM (not active)
CCCCC(=O)OCC(=O)Nc1ccc(SC(F)F)cc1,IC50,[13],> 100 µM (active)
CS(=O)(=O)c1ccc(-c2sc3cc4c(cc3c2C(=O)NN2CCOCC2)OCO4)cc1,IC50,[14],14.6 µM (active)
same,EC50,Kallikrein-7,> 23.2 µM (inactive)
O=C(O)c1cc2sccc2s1,IC50,Estrogen receptor beta,> 50 µM (not active)
COc1cccc(C2(C)NC(=O)N(CC(=O)c3cc(C)n(Cc4ccccc4)c3C)C2=O)c1 (configuration not stated),EC50,[1],> 30 µM (not active)
Cc1cc(C)c2cc(C=O)c(Cl)nc2c1,IC50,[15],14.2 µM (active)
same,IC50,[16],17.1 µM (active)
Cc1ccc(OCCC(=O)Nc2ccc(C)c(F)c2)cc1,IC50,[13],> 100 µM (active)
CCC(C)C(NC(=O)CCCNC(=O)CCC(=O)OC1O[C@H]2OC3(C)CC[C@H]4[C@H](C)CCC(C1C)C24OO3)C(=O)O (some centres not stated),AC50,[17],1.02 µM (active)
same,AC50,[18],> 70 µM (inactive)
same,AC50,[19],0.683 µM (active)
same,IC50,[5],> 85.4 µM (inactive)
O=C(O)CCNc1cc2ccccc2cc1C(=O)O,IC50,[15],> 50 µM (not active)
same,IC50,[16],> 50 µM (not active)
same,IC50,Protein skinhead-1,> 100 µM (inactive)
C(=N\Nc1ncnc2sc3c(c12)CCC3)/c1ccncc1,CC50,[6],38.7 µM (active)
same,CC50,Vero,> 100 µM (active)
CC(C)Oc1ccc(C(=O)Nc2ccc(Cl)c(S(=O)(=O)Nc3ccc(Cl)cc3)c2)cc1,CC50,Vero,28.1 µM (active)
CCOc1ccc(OCC)c(NC(=O)CN2CCN(c3cc(C)ccc3C)CC2)c1,IC50,[13],> 100 µM (active)
Cc1ccc(S(=O)(=O)N2CCN(C)CC2)cc1-c1nnc2c3ccccc3c(C)nn12,IC50,cells [7],23.1 µM (active)
CCc1ccccc1NC(=O)CNC(=O)CCc1nc2sc3c(c2c(=O)[nH]1)CCCC3,IC50,[14],5.82 µM (active)
same,AC50,Caspase-6,24.8 µM (active)
